Patent US20060014790A1, “Methods of treatment of amyloidosis using spirocyclohexane aspartyl-protease inhibitors” (priority 2004, published 2006)
“And” between values parts separate entries of the source, which are not always exact repeats. Equal values may be shown once.

Biological target: catE / beta-secretase (BACE)
Assay: CatE/BACE selectivity (ratio of IC50 values)
Format: biochemical
Settings: each value is an average of four experimental runs; multiple values = more than one experiment
Experimental: Selectivity was calculated as a ratio of inhibition (IC50) values in which the inhibition of beta-secretase was compared to the inhibition of other aspartyl proteases.
Selectivity is reported as the ratio of IC50(catE):IC50(BACE).
In the following examples, each value is an average of four experimental runs and multiple values for one compound indicate that more than one experiment was conducted.

SMILES | IC50 catE/IC50 BACE
CSC1CCC(NCC(O)C(Cc2cc(F)cc(F)c2)NC(C)=O)(c2cccc(C(C)(C)C)c2)CC1 (single isomer, unassigned) [196B-15 Diastereomer B, N-[3-[1-(3-tert-Butyl-phenyl)-4-methylsulfanyl-cyclohexylamino]-1-(3,5-difluoro-benzyl)-2-hydroxy-propyl]-acetamide] | 2.4 and > 2.5 and 2.3
CC(=O)NC(Cc1cc(F)cc(F)c1)C(O)CNC1(c2cccc(C(C)(C)C)c2)CCC(C#N)CC1 (centres unmarked) [Example 196B-41, N-[3-[1-(3-tert-Butyl-phenyl)-4-cyano-cyclohexylamino]-1-(3,5-difluoro-benzyl)-2-hydroxy-propyl]-acetamide] | 2.5
CNC(=O)NC1CCC(NCC(O)C(Cc2cc(F)cc(F)c2)NC(C)=O)(c2cccc(C(C)(C)C)c2)CC1 (single isomer, unassigned) [196B-39 Diastereomer A, 1-(4-(3-acetamido-4-(3,5-difluorophenyl)-2-hydroxybutylamino)-4-(3-tert-butylphenyl)cyclohexyl)-3-methylurea] | >1.3
CC(=O)NC(Cc1cc(F)cc(F)c1)C(O)CNC1(c2cccc(C(C)C)c2)CCC(=O)CC1 (centres unmarked) [Example 196B-2, N-{1-(3,5-Difluoro-benzyl)-2-hydroxy-3-[1-(3-isopropyl-phenyl)-4-oxo-cyclohexylamino]-propyl}-acetamide] | 3.7
COC1CCC(NCC(O)C(Cc2cc(F)cc(F)c2)NC(C)=O)(c2cccc(C(C)(C)C)c2)CC1 (single isomer, unassigned) [196B-4 Diastereomer B, N-[3-[1-(3-tert-Butyl-phenyl)-4-methoxy-cyclohexylamino]-1-(3,5-difluoro-benzyl)-2-hydroxy-propyl]-acetamide] | 1.5
CNC(=O)NC1CCC(NCC(O)C(Cc2cc(F)cc(F)c2)NC(C)=O)(c2cccc(C(C)(C)C)c2)CC1 (single isomer, unassigned) [196B-38 Diastereomer B, 1-(4-(3-acetamido-4-(3,5-difluorophenyl)-2-hydroxybutylamino)-4-(3-tert-butylphenyl)cyclohexyl)-3-methylurea] | >3.5
COC1CCC(NCC(O)C(Cc2cc(F)cc(F)c2)NC(C)=O)(c2cccc(C(C)(C)C)c2)CC1 (single isomer, unassigned) [196B-3 Diastereomer A, N-[3-[1-(3-tert-Butyl-phenyl)-4-methoxy-cyclohexylamino]-1-(3,5-difluoro-benzyl)-2-hydroxy-propyl]-acetamide] | 1.8 and 1.5
CC(=O)NC(Cc1ccc(O)c(F)c1)C(O)CNC1(c2cccc(C(C)C)c2)CCCCC1 (centres unmarked) [Example 196B-1, N-{1-(3-Fluoro-4-hydroxy-benzyl)-2-hydroxy-3[1-(3-isopropyl-phenyl)-cyclohexylamino]-propyl}-acetamide] | 3.2
CC(=O)NC(Cc1cc(F)cc(F)c1)C(O)CNC1(c2cccc(C(C)(C)C)c2)CCC(C(F)(F)F)CC1 (single isomer, unassigned) [196B-22 Diastereomer B, N-(4-(1-(3-tert-butylphenyl)-4-(trifluoromethyl)cyclohexylamino)-1-(3,5-difluorophenyl)-3-hydroxybutan-2-yl)acetamide] | 2.5
CC(=O)NC(Cc1cc(F)cc(F)c1)C(O)CNC1(c2cccc(C(C)(C)C)c2)CCCN(C)C1 (centres unmarked) [Example 196B-32, N-(4-(3-(3-tert-butylphenyl)-1-methylpiperidin-3-ylamino)-1-(3,5-difluorophenyl)-3-hydroxybutan-2-yl)acetamide] | >2,0
CC(=O)NC(Cc1cc(F)cc(F)c1)C(O)CNC1(c2cccc(C(C)(C)C)c2)CCC(N(O)C(C)=O)CC1 (single isomer, unassigned) [196B-31 Diastereomer A, N-(4-(3-acetamido-4-(3,5-difluorophenyl)-2-hydroxybutylamino)-4-(3-tert-butylphenyl)cyclohexyl)-N-hydroxyacetamide] | 13.0
CSC1CCC(NCC(O)C(Cc2cc(F)cc(F)c2)NC(C)=O)(c2cccc(C(C)(C)C)c2)CC1 (single isomer, unassigned) [196B-14 Diastereomer A, N-[3-[1-(3-tert-Butyl-phenyl)-4-methylsulfanyl-cyclohexylamino]-1-(3,5-difluoro-benzyl)-2-hydroxy-propyl]-acetamide] | 5.5 and 3.4 and 2.9
CC(=O)NC(Cc1cc(F)cc(F)c1)C(O)CNC1(c2cccc(C(C)(C)C)c2)CCC(C(F)(F)F)CC1 (single isomer, unassigned) [196B-21 Diastereomer A, N-(4-(1-(3-tert-butylphenyl)-4-(trifluoromethyl)cyclohexylamino)-1-(3,5-difluorophenyl)-3-hydroxybutan-2-yl)acetamide] | 6.4
CC(=O)NC(Cc1cc(F)cc(F)c1)C(O)CNC1(c2cccc(C(C)(C)C)c2)CCN(CCC#N)CC1 (centres unmarked) [Example 196B-26, N-[3-[4-(3-tert-Butyl-phenyl)-1-(2-cyano-ethyl)-piperidin-4-ylamino]-1-(3,5-difluoro-benzyl)-2-hydroxy-propyl]-acetamide] | 1.8
CC(=O)NC(Cc1cc(F)cc(F)c1)C(O)CNC1(c2cccc(C(C)(C)C)c2)CCC(O)(CO)CC1 (single isomer, unassigned) [196B-27 Diastereomer B, N-[3-[1-(3-tert-Butyl-phenyl)-4-hydroxy-4-hydroxymethyl-cyclohexylamino]-1-(3,5-difluoro-benzyl)-2-hydroxy-propyl]-acetamide] | >5.3
CC(=O)NC(Cc1cc(F)cc(F)c1)C(O)CNC1(c2cccc(C(C)(C)C)c2)CCC(NC=O)CC1 (single isomer, unassigned) [196B-36 Diastereomer A, N-(4-(1-(3-tert-butylphenyl)-4-formamidocyclohexylamino)-1-(3,5-difluorophenyl)-3-hydroxybutan-2-yl)acetamide] | 26.5
CC(=O)NC(Cc1cc(F)cc(F)c1)C(O)CNC1(c2cccc(C(C)(C)C)c2)CCC(C)CC1 (centres unmarked) [Example 196B-5, N-[3-[1-(3-tert-Butyl-phenyl)-4-methyl-cyclohexylamino]-1-(3,5-difluoro-benzyl)-2-hydroxy-propyl]-acetamide] | 3.1
CC(=O)NC(Cc1cc(F)cc(F)c1)C(O)CNC1(c2cccc(C(C)(C)C)c2)CCC(NS(C)(=O)=O)CC1 (single isomer, unassigned) [196B-35 Diastereomer B, N-(4-(1-(3-tert-butylphenyl)-4-(methylsulfonamido)cyclohexylamino)-1-(3,5-difluorophenyl)-3-hydroxybutan-2-yl)acetamide] | >3.0
CC(=O)NC(Cc1cc(F)cc(F)c1)C(O)CNC1(c2cccc(C(C)(C)C)c2)CCC([S+](C)[O-])CC1 (single isomer, unassigned) [196B-24 Diastereomer B, N-(4-(1-(3-tert-butylphenyl)-4-(methylsulfinyl)cyclohexylamino)-1-(3,5-difluorophenyl)-3-hydroxybutan-2yl)acetamide] | 3.0
CC(=O)NC(Cc1cc(F)cc(F)c1)C(O)CNC1(c2cccc(C(C)(C)C)c2)CCC(N)CC1 (single isomer, unassigned) [196B-18 Diastereomer A, N-(4-(1-(3-tert-butylphenyl)-4-aminocyclohexylamino)-1-(3,5-difluorophenyl)-3-hydroxybutan-2-yl)acetamide] | >8.4
COC(=O)NC1CCC(NCC(O)C(Cc2cc(F)cc(F)c2)NC(C)=O)(c2cccc(C(C)(C)C)c2)CC1 (single isomer, unassigned) [196B-29 Diastereomer A, methyl 4-(3-acetamido-4-(3,5-difluorophenyl)-2-hydroxybutylamino)-4-(3-tert-butylphenyl)cyclohexylcarbamate] | 13.1
CC(=O)NC(Cc1cc(F)cc(F)c1)C(O)CNC1(c2cccc(-n3cccn3)c2)CCC2(CC1)OCCO2 (centres unmarked) [Example 196B-13, N-{1-(3,5-Difluoro-benzyl)-2-hydroxy-3-[8-(3-pyrazol-1-yl-phenyl)-1,4-dioxa-spiro[4.5]dec-8-ylamino]-propyl}-acetamide] | 2.5
CC(=O)NC(Cc1cc(F)cc(F)c1)C(O)CNC1(c2cccc(-c3ccsc3)c2)CCC(=O)CC1 (centres unmarked) [Example 196B-10, N-(1-(3,5-difluorophenyl)-3-hydroxy-4-(4-oxo-1-(3-(thiophen-3-yl)phenyl)cyclohexylamino)butan-2-yl)acetamide] | 5.6
CC(=O)NC(Cc1cc(F)cc(F)c1)C(O)CNC1(c2cccc(C(C)(C)C)c2)CCC(N)CC1 (single isomer, unassigned) [196B-19 Diastereomer B, N-(4-(1-(3-tert-butylphenyl)-4-aminocyclohexylamino)-1-(3,5-difluorophenyl)-3-hydroxybutan-2-yl)acetamide] | >8.4
CONC1CCC(NCC(O)C(Cc2cc(F)cc(F)c2)NC(C)=O)(c2cccc(C(C)(C)C)c2)CC1 (single isomer, unassigned) [196B-12 Diastereomer B, N-(4-(1-(3-tert-butylphenyl)-4-(methoxyamino)cyclohexylamino)-1-(3,5-difluorophenyl)-3-hydroxybutan-2-yl)acetamide] | 12.5
CNC1CCC(NCC(O)C(Cc2cc(F)cc(F)c2)NC(C)=O)(c2cccc(C(C)(C)C)c2)CC1 (single isomer, unassigned) [196B-17 Diastereomer B, N-(4-(1-(3-tert-butylphenyl)-4-(methylamino)cyclohexylamino)-1-(3,5-difluorophenyl)-3-hydroxybutan-2-yl)acetamide] | 1.8
